Experimental data: patent publication US20040057908A1, “Oral compositions and use thereof” (priority 2003, published 2004)
Values after ≈ are worked out from the molar mass of the structure shown. Read-outs that look alike come from different tables or passages of the source.

Key:
[1] = tested on: Mutans Streptococci Strains; assay: MIC and MBC, broth dilution, all strains stated together; assay type: cell-based, S. mutans (GS-5 and UA159) and S. sobrinus 6715
Description: (§1) The minimum inhibitory concentration (MIC) and minimum bactericidal concentration (MBC) were determined for each test compound according to the National Committee for Clinical Laboratory Standards guidelines (Tentative standard M26-T, 1992; NCCLS Publication No. M7-A5, 2000) and Koo et al. (2000b). The broth microdilution and macrodilution methods (in TSB) were used for the antibacterial tests. The starting inoculum was 5×10^5 CFU/ml and the concentrations of test compounds ranged from 15.6 to 500 μM (two-fold dilutions). The MICs and MBCs were determined in quadruplicate in at least 3 different experiments.

GTF Ss [2] = biological target: T1, GTF Ss (Streptococcus sanguinis, UniProt A3CLJ9); assay: GTF activity in solution, GTF Ss; assay type: biochemical, S. sanguinis; conditions: mean (SD)
Description: (§2) Glucosyltransferase activity was measured by the incorporation of [^14C-glucose] from labeled sucrose (NEN Research Products, Boston, Mass.) into glucans (Germaine et al., 1974; Venkitaraman et al., 1995). The GTF enzyme added to each sample for all assays was equivalent to the amount required to incorporate 1.0-1.5 μmol of glucose over the four hours reaction (1.0-1.5 units).
(§3) For solution assays, purified GTF B, C, D and Ss were mixed with a two-fold dilution series of the test compounds (concentration ranging from 125 to 500 μM) and incubated with [^14C-glucose]-sucrose substrate (0.2 μCi/ml) (200.0 mmol/l sucrose, 40 μmol/l dextran 9000, 0.02% sodium azide in adsorption buffer—50 mM KCl, 1.0 mM KPO4, 1.0 mM CaCl2, 0.1 mM MgCl2−pH=6.5) to reach a final concentration of 100 mmol/l sucrose (200 μl final volume). For the control, the same reaction was carried out, where ethanol:DMSO (final concentration of 7.5% and 1.25%, v/v) or ethanol (final concentration of 5%, v/v) replaced the test agent solutions. The samples were incubated 37° C. with rocking for 4 h. After incubation, ice-cold ethanol (1.0 ml) was added and the samples were stored for 18 h, 4° C. for precipitation of glucans. Radiolabeled glucan was determined by scintillation counting (Germaine et al., 1974; Venkitaraman et al., 1995).

GTF D [3] = biological target: T2, GTF D (Streptococcus mutans serotype c, UniProt P49331); assay: GTF activity in solution, GTF D; assay type: biochemical; conditions: mean (SD)
T2 construct: made in house; host or cells: Streptococcus milleri NH5 (culture supernatant)
T2 sequence (P49331 whole entry): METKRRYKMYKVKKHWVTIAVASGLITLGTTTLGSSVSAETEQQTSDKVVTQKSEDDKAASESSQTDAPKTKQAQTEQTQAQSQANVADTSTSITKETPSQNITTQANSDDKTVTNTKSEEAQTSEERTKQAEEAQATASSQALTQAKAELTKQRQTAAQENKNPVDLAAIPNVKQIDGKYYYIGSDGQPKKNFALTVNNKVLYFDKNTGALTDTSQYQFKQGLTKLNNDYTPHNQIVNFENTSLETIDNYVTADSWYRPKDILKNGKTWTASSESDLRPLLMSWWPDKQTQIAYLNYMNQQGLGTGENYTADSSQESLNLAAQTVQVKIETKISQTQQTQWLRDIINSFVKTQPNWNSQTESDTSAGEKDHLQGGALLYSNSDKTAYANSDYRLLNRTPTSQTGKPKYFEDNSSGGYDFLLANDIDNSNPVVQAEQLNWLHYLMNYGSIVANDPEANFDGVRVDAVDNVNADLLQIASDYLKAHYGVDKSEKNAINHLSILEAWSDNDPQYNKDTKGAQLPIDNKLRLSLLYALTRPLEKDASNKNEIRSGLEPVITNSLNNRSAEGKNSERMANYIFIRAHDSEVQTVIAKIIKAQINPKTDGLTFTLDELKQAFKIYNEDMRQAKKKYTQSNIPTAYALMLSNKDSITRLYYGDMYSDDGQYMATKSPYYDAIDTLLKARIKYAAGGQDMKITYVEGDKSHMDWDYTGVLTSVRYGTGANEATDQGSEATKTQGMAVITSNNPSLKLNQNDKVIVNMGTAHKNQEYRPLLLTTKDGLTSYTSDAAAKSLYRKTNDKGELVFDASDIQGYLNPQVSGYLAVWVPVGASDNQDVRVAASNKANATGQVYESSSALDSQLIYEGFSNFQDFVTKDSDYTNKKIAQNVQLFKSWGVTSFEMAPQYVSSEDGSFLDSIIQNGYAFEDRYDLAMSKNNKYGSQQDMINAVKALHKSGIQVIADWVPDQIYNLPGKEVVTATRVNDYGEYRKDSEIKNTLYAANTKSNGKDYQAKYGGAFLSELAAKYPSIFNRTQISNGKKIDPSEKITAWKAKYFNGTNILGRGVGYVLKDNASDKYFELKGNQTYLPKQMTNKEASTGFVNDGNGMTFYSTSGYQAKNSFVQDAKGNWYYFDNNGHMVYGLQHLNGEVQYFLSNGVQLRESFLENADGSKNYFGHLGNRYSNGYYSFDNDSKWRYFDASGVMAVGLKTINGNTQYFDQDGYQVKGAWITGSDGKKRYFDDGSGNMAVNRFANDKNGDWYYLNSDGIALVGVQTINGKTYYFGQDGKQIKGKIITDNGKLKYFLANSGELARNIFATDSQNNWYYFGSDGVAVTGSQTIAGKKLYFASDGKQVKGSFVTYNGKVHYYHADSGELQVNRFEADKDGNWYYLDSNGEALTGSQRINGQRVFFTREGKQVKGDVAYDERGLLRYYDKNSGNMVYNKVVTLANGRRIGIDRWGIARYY
Description: as §2, §3

GTF Ss [4] = biological target: T1, GTF Ss; assay: GTF activity adsorbed onto sHA surface, GTF Ss; assay type: biochemical, S. sanguinis; conditions: mean (SD)
Description: as §2
(§4) For surface assays, the GTFs were adsorbed to hydroxyapatite beads coated with clarified whole saliva (free of GTF activity), as detailed elsewhere (Koo et al., 2000c; Schilling and Bowen, 1988, Venkitaraman et al., 1995). The saliva-coated hydroxyapatite (sHA) beads were exposed to sufficient enzyme to saturate the surface as determined experimentally. Following the adsorption of the enzyme, the beads were washed 3 times with buffer to remove the loosely bound material and exposed to 300 μl of the two-fold dilution series of test compounds (or control) for 30 min. at the same concentrations described above. The beads were washed and exposed to 300 μl [^14C-glucose]-sucrose substrate (100.0 mmol/l sucrose, final concentration). The radiolabeled glucan formed was collected and quantified by scintillation counting (Germaine et al., 1974; Venkitaraman et al., 1995). All the solution and surface assays were done in quadruplicate in at least 3 different experiments.

GTF C [5] = biological target: T3, GTF C (Streptococcus mutans serotype c, UniProt P13470); assay: GTF activity adsorbed onto sHA surface, GTF C; assay type: biochemical; conditions: mean (SD)
T3 construct: The supernatant was carefully collected as the source of GTF C; made in house; host or cells: Streptococcus mutans WHB 410 (endogenous gtfC; urea/Triton extract of washed cells, hydroxyapatite chromatography)
T3 sequence (P13470 35-1455): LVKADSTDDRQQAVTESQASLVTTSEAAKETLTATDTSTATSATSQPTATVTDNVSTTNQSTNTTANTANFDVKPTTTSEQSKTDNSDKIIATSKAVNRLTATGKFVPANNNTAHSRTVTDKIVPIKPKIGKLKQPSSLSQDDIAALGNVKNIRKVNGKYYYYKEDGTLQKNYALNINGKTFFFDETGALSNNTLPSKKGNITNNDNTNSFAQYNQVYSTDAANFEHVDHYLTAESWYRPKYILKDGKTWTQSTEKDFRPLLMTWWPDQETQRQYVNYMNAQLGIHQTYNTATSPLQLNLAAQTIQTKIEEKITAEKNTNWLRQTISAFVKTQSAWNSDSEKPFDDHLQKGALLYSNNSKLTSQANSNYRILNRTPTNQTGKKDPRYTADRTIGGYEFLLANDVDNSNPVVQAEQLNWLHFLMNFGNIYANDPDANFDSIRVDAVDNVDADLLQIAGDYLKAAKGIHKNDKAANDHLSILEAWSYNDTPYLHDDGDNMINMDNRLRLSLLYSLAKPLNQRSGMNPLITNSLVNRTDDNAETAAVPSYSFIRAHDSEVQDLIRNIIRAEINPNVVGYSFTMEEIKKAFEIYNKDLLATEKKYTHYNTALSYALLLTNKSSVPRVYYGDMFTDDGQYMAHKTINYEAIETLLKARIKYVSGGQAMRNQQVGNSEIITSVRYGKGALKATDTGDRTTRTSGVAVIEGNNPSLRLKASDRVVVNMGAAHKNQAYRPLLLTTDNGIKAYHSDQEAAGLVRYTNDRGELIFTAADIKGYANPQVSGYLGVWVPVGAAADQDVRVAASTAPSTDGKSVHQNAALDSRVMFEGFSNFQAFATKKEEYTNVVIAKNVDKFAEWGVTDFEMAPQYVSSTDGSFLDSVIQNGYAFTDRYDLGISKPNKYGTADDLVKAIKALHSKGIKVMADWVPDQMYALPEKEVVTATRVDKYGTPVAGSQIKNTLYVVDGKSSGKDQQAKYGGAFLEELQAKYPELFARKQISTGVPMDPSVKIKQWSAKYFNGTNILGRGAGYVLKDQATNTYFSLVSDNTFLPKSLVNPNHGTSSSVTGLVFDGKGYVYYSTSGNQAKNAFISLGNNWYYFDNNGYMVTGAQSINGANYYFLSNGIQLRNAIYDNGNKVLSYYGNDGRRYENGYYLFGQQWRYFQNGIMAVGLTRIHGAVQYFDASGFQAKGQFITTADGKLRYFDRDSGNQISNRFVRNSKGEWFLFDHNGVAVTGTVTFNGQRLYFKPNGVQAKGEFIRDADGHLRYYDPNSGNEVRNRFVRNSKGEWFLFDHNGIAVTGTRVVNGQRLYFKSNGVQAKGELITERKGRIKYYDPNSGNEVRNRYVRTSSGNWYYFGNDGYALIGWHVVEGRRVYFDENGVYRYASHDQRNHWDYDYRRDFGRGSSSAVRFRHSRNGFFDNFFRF
Description: as §2, §4

GTF D [6] = biological target: T2, GTF D; assay: GTF activity adsorbed onto sHA surface, GTF D; assay type: biochemical; conditions: mean (SD)
Description: as §2, §4

GTF B [7] = biological target: T4, GTF B (Streptococcus mutans serotype c, UniProt P08987); assay: GTF activity in solution, GTF B; assay type: biochemical; conditions: mean (SD)
T4 construct: made in house; host or cells: Streptococcus milleri KSB8 (culture supernatant)
T4 sequence (P08987 35-1476): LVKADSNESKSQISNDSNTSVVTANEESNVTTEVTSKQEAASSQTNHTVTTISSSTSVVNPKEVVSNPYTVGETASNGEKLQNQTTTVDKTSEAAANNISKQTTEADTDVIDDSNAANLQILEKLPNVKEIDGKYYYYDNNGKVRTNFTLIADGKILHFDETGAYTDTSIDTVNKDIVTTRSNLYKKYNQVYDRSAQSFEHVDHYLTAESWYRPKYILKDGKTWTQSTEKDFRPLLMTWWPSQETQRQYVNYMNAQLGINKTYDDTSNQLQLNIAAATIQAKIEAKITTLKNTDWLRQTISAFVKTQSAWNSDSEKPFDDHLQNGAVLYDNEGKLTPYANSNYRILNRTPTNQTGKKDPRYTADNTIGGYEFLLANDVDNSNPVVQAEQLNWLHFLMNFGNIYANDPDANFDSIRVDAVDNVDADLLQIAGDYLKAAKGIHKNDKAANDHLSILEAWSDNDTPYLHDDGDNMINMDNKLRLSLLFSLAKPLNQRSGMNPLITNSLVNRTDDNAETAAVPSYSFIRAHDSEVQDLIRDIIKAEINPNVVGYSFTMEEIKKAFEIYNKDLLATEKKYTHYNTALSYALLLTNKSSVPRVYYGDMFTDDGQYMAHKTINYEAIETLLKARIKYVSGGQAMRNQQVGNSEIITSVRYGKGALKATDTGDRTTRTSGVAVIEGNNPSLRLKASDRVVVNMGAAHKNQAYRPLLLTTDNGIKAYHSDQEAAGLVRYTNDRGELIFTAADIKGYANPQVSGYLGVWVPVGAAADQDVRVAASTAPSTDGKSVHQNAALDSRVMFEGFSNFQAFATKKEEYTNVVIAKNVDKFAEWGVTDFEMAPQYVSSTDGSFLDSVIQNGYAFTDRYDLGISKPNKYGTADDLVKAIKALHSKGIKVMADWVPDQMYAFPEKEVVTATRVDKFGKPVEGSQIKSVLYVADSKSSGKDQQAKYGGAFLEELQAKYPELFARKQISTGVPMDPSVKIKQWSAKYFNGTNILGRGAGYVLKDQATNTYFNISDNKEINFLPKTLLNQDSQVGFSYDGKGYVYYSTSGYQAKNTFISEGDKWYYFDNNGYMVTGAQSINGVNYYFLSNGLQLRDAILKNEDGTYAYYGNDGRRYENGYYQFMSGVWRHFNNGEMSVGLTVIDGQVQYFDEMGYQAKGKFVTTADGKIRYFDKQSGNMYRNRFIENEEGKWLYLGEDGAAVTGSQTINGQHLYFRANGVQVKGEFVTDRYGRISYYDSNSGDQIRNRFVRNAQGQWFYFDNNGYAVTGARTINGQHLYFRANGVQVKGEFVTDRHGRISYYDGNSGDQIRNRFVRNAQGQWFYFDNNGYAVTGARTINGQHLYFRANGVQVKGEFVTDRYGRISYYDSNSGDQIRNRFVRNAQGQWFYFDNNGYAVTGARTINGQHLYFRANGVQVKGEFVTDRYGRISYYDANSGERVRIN
Description: as §2, §3

[8] = tested on: Streptococcus mutans UA 159; assay: MIC and MBC, broth dilution; assay type: cell-based
Description: as §1

[9] = tested on: Streptococcus mutans GS-5; assay: MIC and MBC, broth dilution; assay type: cell-based
Description: as §1

[10] = tested on: Streptococcus sobrinus 6715; assay: MIC and MBC, broth dilution; assay type: cell-based
Description: as §1

GTF C [11] = biological target: T3, GTF C; assay: GTF activity in solution, GTF C; assay type: biochemical; conditions: mean (SD)
Description: as §2, §3

GTF B [12] = biological target: T4, GTF B; assay: GTF activity adsorbed onto saliva-coated hydroxyapatite (sHA) surface, GTF B; assay type: biochemical; conditions: mean (SD)
Description: as §2, §4

[13] = all strains tested (S. mutans GS-5, UA159, S. sobrinus 6715), read-out: MIC

| Structure (SMILES) | MIC ([1]; all strains tested) [mg/L] | MIC [1, 13] [µM] | GTF Ss sol. % of Inhib. (GTF Ss [2]; 125 μM) | GTF Ss sol. % of Inhib. (GTF Ss [2]; 250 μM) | GTF Ss sol. % of Inhib. (GTF Ss [2]; 500 μM) | GTF D sol. % of Inhib. (GTF D [3]; 125 μM) | GTF D sol. % of Inhib. (GTF D [3]; 250 μM) | GTF D sol. % of Inhib. (GTF D [3]; 500 μM) | GTF Ss surf. % of Inhib. (GTF Ss [4]; 125 μM) | GTF Ss surf. % of Inhib. (GTF Ss [4]; 250 μM) | GTF Ss surf. % of Inhib. (GTF Ss [4]; 500 μM) | GTF C surf. % of Inhib. (GTF C [5]; 125 μM) | GTF C surf. % of Inhib. (GTF C [5]; 250 μM) | GTF C surf. % of Inhib. (GTF C [5]; 500 μM) | MBC [8] [µM] | MIC [8] [µM] | MBC [9] [µM] | MIC [9] [µM] | MBC ([10]; Streptococcus sobrinus 6715) [µM] | MIC ([10]; Streptococcus sobrinus 6715) [µM] | also measured |
| --- | --- | --- | --- | --- | --- | --- | --- | --- | --- | --- | --- | --- | --- | --- | --- | --- | --- | --- | --- | --- | --- |
| O=C1C[C@@H](c2ccccc2)Oc2cc(O)cc(O)c21 [Pinocembrin] | 64 | 250 | 25.7 (4.1) % | 32.6 (6.8) % | 45.7 (8.3) % | 1.5 (0.1) % | 4.8 (2.7) % | 14.9 (4.2) % | 0.0 (0.2) % | 0.0 (4.2) % | 10.5 (2.7) % | 0.0 (0.0) % | 0.4 (0.1) % | 13.5 (4.9) % | >500 | 250 (≈ 64.1 µg/mL) | >500 | 250 (≈ 64.1 µg/mL) | 500 | 250 (≈ 64.1 µg/mL) | GTF D surf. % of Inhib. (GTF D [6]; 125 μM): 0.0 (0.7) %; GTF D surf. % of Inhib. (GTF D [6]; 250 μM): 8.2 (2.7) %; GTF D surf. % of Inhib. (GTF D [6]; 500 μM): 15.5 (6.2) %; GTF B sol. % of Inhib. (GTF B [7]; 125 μM): 3.7 (5.2) %; GTF B sol. % of Inhib. (GTF B [7]; 250 μM): 7.2 (1.6) %; GTF B sol. % of Inhib. (GTF B [7]; 500 μM): 15.9 (4.7) %; MBC ([10]; S. sobrinus 6715): 128 mg/L; GTF C sol. % of Inhib. (GTF C [11]; 125 μM): 0.0 (0.7) %; GTF C sol. % of Inhib. (GTF C [11]; 250 μM): 8.5 (3.2) %; GTF C sol. % of Inhib. (GTF C [11]; 500 μM): 17.2 (4.2) %; GTF B surf. % of Inhib. (GTF B [12]; 125 μM): 0.7 (3.3) %; GTF B surf. % of Inhib. (GTF B [12]; 250 μM): 8.8 (4.3) %; GTF B surf. % of Inhib. (GTF B [12]; 500 μM): 18.9 (5.4) % |
| COc1cc(O)c2c(c1)O[C@H](c1ccc(O)cc1)CC2=O [Sakuranetin] | – | – | – | – | – | – | – | – | – | – | – | – | – | – | >500 | >500 | >500 | >500 | >500 | 500 (≈ 143 µg/mL) | – |
| CC(=O)O[C@H]1C(=O)c2c(O)cc(O)cc2O[C@@H]1c1ccccc1 [Pinobanksin-3-acetate] | 157 | 500 | 4.6 (5.7) % | 22.8 (3.6) % | 30.5 (7.2) % | 5.5 (4.5) % | 2.7 (3.3) % | 3.5 (2.1) % | 0.0 (0.6) % | 0.0 (2.7) % | 9.9 (5.9) % | 0.0 (0.1) % | 0.0 (0.0) % | 0.0 (3.3) % | >500 | 500 (≈ 157 µg/mL) | >500 | 500 (≈ 157 µg/mL) | >500 | 250 (≈ 78.6 µg/mL) | GTF D surf. % of Inhib. (GTF D [6]; 125 μM): 0.0 (0.0) %; GTF D surf. % of Inhib. (GTF D [6]; 250 μM): 4.5 (2.0) %; GTF D surf. % of Inhib. (GTF D [6]; 500 μM): 10.1 (2.8) %; GTF B sol. % of Inhib. (GTF B [7]; 125 μM): 0.0 (0.8) %; GTF B sol. % of Inhib. (GTF B [7]; 250 μM): 7.7 (3.5) %; GTF B sol. % of Inhib. (GTF B [7]; 500 μM): 18.9 (2.8) %; GTF C sol. % of Inhib. (GTF C [11]; 125 μM): 0.0 (0.0) %; GTF C sol. % of Inhib. (GTF C [11]; 250 μM): 3.5 (4.2) %; GTF C sol. % of Inhib. (GTF C [11]; 500 μM): 16.7 (4.3) %; GTF B surf. % of Inhib. (GTF B [12]; 125 μM): 9.4 (4.8) %; GTF B surf. % of Inhib. (GTF B [12]; 250 μM): 7.3 (2.1) %; GTF B surf. % of Inhib. (GTF B [12]; 500 μM): 10.3 (3.5) % |
